According to US20060166999A1, “Use of microsomal triglyceride transfer protein (MTP) inhibitors for reducing the number of postprandial triglyceride-rich lipoprotein particles (PPTRL)” (Bayer Aktiengesellschaft, priority 2000, published 2006):

Legend:
atherosclerotic plaques = settings: mouse test; Zaiss et al., Circulation 100 (18, Suppl. I):258 Abstr. 1343 (1999); cited from earlier work
ApoE-knockout mice = assay: Long-term feeding experiment with ApoE-knockout mice; assay type: in vivo; settings: ApoE-knockout mice on fat-containing Western diet; 5 ppm with the feed; after 13 months; over half of the untreated mice were dead
Experimental: Long-Term Feeding Experiment with ApoE-Knockout Mice
ApoE-knockout mice received a fat-containing diet (0.15% cholesterol, 21.4% crude fat, 19% casein; “Western diet”). The compound of Example 48 was administered in a proportion of 5 ppm with the feed to the treated group, while the control group received the food without active ingredient. After 13 months, over half of the untreated mice were dead, whereas 23 of 25 animals in the treated group were still alive.
It is known from the literature that the ApoE-knockout mice used die from myocardial infarctions and manifestations of neuronal degeneration [Caligiuri, G., et al., Proc. Natl. Acad. Sci. USA, 96, 6920-6924 (1999); Walker, L. C. Am. J. Pathol., 151, (5), 1371-1377 81997)].

Molecule | formation of atherosclerotic plaques (atherosclerotic plaques) | animals in the treated group still alive (ApoE-knockout mice)
implitapide | prevents the formation of atherosclerotic plaques | 
Cc1cc(C)c2c3ccccc3n(Cc3ccc([C@@H](C(=O)N[C@@H](CO)c4ccccc4)C4CCCC4)cc3)c2n1 [Example 48, (2S)-2-Cyclopentyl-2-[4-(2,4-dimethyl-pyrido[2,3-b]indol-9-ylmethyl)-phenyl]-N-(2-(1R)-hydroxy-1-phenyl-ethyl)-acetamide] |  | 23 of 25
